Experimental data reported in article PMC10017046 (Science Advances, 2023).

Key:
[1] = cited from earlier work
MTLR [2] = conditions: cited from earlier work
GI motility = conditions: cited from earlier work; for GI motility activity: [51]
MTLR [3] = conditions: cited from earlier work; remark: listed apart in the source
MTLR [4] = conditions: camicinal; ref [51]; cited from earlier work
MTLR [5] = conditions: cited from earlier work; remark: listed apart in the source
gastroparesis = conditions: ref [14], [15]; cited from earlier work
MTLR L341A = MTLR L341A (Homo sapiens, UniProt O43193, L341A); test: IP1 accumulation; format: cell-based; conditions: MTLR-bearing alanine mutation of L341^7.39
[6] = test system: MTLR, substitution of E119^3.33 with aspartic acid; conditions: E119^3.33 substituted with aspartic acid; ref [16]; cited from earlier work

Sequence of MTLR L341A (O43193 whole entry L341A): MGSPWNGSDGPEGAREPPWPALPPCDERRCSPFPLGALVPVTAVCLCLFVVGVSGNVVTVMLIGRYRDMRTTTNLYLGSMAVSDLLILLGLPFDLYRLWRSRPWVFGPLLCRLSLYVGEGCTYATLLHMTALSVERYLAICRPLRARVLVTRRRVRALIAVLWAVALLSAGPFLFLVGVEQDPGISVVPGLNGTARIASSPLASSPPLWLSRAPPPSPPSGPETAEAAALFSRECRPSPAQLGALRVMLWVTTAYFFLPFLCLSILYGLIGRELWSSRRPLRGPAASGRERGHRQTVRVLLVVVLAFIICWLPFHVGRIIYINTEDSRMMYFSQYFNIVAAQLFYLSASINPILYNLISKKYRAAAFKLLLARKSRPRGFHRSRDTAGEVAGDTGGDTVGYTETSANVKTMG

## atilmotin
[1]; ref [50]
  adverse effects: not associated with any central nervous system–, respiratory system–, or cardiovascular system–related adverse effects

## CC[C@H]1OC(=O)[C@H](C)[C@@H](O[C@H]2C[C@@](C)(OC)[C@@H](O)[C@H](C)O2)[C@H](C)[C@@H](O[C@@H]2O[C@H](C)C[C@H](N(C)C(C)C)[C@H]2O)[C@@]2(C)CC(C)=C(O2)[C@H](C)C(=O)[C@]1(C)OC [mitemcinal]
MTLR [2]; ref [54]
  desensitization effect: much more improved

## C[C@H]1CN(Cc2ccc(CC(=O)N3CCC(Nc4cccc(F)c4)CC3)cc2)CCN1 [Camicinal, camicinal]
GI motility; ref [51]
  gastric cholinergic activity: long-lasting gastric cholinergic activity
MTLR [3]; ref [51]
  oral effectiveness as MTLR agonist: orally effective MTLR agonist
MTLR [4]
  receptor selectivity: high receptor selectivity

## CC[C@H]1OC(=O)[C@H](C)[C@@H](O[C@H]2C[C@@](C)(OC)[C@@H](O)[C@H](C)O2)[C@H](C)[C@@H](O[C@@H]2O[C@H](C)C[C@H](N(C)C)[C@H]2O)[C@](C)(O)C[C@@H](C)CN(C)[C@H](C)[C@@H](O)[C@]1(C)O [azithromycin]
GI motility; ref [9]
  GI motility activity: mimic the GI motility activity of motilin
[1]; long-term use, azithromycin, ref [4], [15]
  GI disturbances: often causes unexpected GI disturbances

## CC[C@H]1OC(=O)[C@H](C)[C@@H](O[C@H]2C[C@@](C)(OC)C[C@H](C)O2)[C@H](C)[C@@H](O[C@@H]2O[C@H](C)C[C@H](N(C)CC)[C@H]2O)[C@@]2(C)CC(C)=C(O2)[C@H](C)[C@@H](O)[C@H]1C [ABT-229]
MTLR [2]; compared with motilin and erythromycin, ref [52], [53]
  desensitization-inducing effect: more potent desensitization-inducing effect compared with motilin and erythromycin
MTLR [2]; ref [52], [53]
  receptor internalization: relatively high ability to induce receptor internalization

## motilin analog [1-12]: motilin analog [1-12] (FVPIFTYGELQR; Motilin; UniProt P12872 26-37, looked up, fragment)
MTLR [5]; motilin analog [1-12] compared with analog [1-11], ref [4]
  fold increased binding affinity: 158 -fold

## CC[C@H]1OC(=O)[C@H](C)[C@@H](O[C@H]2C[C@@](C)(OC)[C@@H](O)[C@H](C)O2)[C@H](C)[C@@H](O[C@@H]2O[C@H](C)C[C@H](N(C)C)[C@H]2O)[C@](C)(O)C[C@@H](C)C(=O)[C@H](C)[C@@H](O)[C@]1(C)O [erythromycin]
MTLR [5]; ref [16], [35]
  role of ECL2 regions of MTLR for erythromycin: not critical for erythromycin
GI motility; ref [9], [10]
  GI contractile activity: mimic exogenous motilin in GI contractile activity
GI motility; ref [9]
  GI motility activity: mimic the GI motility activity of motilin
gastroparesis
  effectiveness in gastroparesis: effective treatment for gastroparesis
MTLR [3]; erythromycin versus motilin, ref [4]
  weaker MTLR activation ability than motilin: ~ 1000 -fold
MTLR [3]; ref [11]
  MTLR agonism: agonist for MTLR
MTLR L341A
  erythromycin activity (in words): markedly decreased erythromycin activities
[6]
  ligand activity: marked decrease in ligand activity
